Experimental data taken from US11306081B2, “Phenylacetamides as inhibitors of rock” (BRISTOL-MYERS SQUIBB COMPANY, priority 2017, dated 2022).
Like-named read-outs stand apart in the source and are kept apart here.

What was measured:
[1] = test system: porcine model of IL-1 beta-induced coronary stenosis; conditions: long term treatment; cited from earlier work
rat stroke model = conditions: in vivo; cited from earlier work
[2] = test system: spontaneously hypertensive rat, renal hypertensive rat and deoxycortisone acetate salt hypertensive rat models; conditions: cited from earlier work
[3] = test system: neointimal formation in rats; conditions: cited from earlier work
Dahl salt-sensitive rats = conditions: rat, in vivo; cited from earlier work
ROCK2 = ROCK2 (Homo sapiens (Human), UniProt O75116); test: ROCK assay (LABCHIP 3000 peptide phosphorylation assay); format: biochemical; conditions: 5 μM ATP, 1.5 μM peptide substrate, dose-response
Method in brief: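 Rho kinase variants in 20 mM HEPES pH 7.5, 20 mM MgCl2, 0.015% Brij-35, 4 mM DTT, 5 μM ATP, 1.5 μM FITC-AHA-AKRRRLSSLRA-OH peptide; DMSO <2%. EDTA-stopped; phosphorylated/non-phosphorylated peptide separated by microfluidic LabChip readout. Dose-response inhibition curve-fitted to give IC50.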

Sequence of ROCK2 (O75116 whole entry, species assumed): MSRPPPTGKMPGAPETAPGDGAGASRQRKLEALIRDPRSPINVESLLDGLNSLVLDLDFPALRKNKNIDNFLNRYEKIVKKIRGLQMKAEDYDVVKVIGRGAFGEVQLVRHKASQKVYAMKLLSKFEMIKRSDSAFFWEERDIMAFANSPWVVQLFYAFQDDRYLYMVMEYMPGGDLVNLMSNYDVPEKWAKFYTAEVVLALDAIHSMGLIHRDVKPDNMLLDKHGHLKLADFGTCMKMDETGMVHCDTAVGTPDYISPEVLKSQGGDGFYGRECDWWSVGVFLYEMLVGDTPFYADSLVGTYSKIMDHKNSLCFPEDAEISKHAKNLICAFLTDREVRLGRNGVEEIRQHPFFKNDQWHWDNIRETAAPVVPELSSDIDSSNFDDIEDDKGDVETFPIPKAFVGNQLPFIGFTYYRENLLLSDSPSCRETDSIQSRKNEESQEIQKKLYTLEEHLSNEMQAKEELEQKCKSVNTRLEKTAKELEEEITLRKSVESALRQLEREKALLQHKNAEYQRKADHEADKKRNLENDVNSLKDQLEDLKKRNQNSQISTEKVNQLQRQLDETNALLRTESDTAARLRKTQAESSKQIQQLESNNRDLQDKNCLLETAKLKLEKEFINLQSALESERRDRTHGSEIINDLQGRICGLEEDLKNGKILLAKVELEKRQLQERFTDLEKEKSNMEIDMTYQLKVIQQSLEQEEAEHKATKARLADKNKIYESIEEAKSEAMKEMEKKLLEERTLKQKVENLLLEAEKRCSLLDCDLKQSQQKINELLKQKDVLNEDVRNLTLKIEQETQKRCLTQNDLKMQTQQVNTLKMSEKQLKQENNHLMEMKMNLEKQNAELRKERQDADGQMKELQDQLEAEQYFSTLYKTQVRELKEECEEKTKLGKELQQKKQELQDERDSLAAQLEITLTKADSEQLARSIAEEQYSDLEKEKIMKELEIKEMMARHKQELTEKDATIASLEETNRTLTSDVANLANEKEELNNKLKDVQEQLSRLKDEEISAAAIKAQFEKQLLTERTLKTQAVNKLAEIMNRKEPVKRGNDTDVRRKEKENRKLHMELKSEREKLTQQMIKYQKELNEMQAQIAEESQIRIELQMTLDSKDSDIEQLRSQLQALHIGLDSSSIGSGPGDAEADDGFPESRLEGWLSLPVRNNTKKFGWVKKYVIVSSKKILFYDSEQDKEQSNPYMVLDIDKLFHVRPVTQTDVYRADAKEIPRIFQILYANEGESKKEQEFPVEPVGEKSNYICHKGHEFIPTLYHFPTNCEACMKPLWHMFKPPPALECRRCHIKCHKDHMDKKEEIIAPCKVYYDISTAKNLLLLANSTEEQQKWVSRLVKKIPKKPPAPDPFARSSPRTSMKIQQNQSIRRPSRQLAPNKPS

| Structure (SMILES) | IC50 (ROCK2) [nM] | further results |
| --- | --- | --- |
| O=S(=O)(c1cccc2cnccc12)N1CCCNCC1 [fasudil] | – | coronary constrictive remodeling [1]: promote a regression of coronary constrictive remodeling; coronary stenosis [1]: progressively reduce coronary stenosis; infarct size and neurologic deficit (rat stroke model): reduce both the infarct size and neurologic deficit |
| C[C@@H](N)[C@H]1CC[C@H](C(=O)Nc2ccncc2)CC1 [Example Y-27632, Y-27632] | – | blood pressure ([2]; control rats): only a minor effect on blood pressure; blood pressure ([2]; three rat models of hypertension): significantly decrease blood pressure; neointimal formation [3]: inhibited neointimal formation; ventricular hypertrophy, fibrosis and function (Dahl salt-sensitive rats): improve ventricular hypertrophy, fibrosis and function |
| CC(C)(O)COc1ccc2c(c1)CCc1sc(NC(=O)Cc3ccc(Oc4ncccc4C(N)=O)c(Cl)c3)nc1-2 [Example 113, 2-(2-chloro-4-(2-((7-(2-hydroxy-2-methylpropoxy)-4,5-dihydronaphtho[1,2-d]thiazol-2-yl)amino)-2-oxoethyl)phenoxy)nicotinamide] | 58 | – |
| Cc1cc2nc(NC(=O)Cc3ccc(Oc4ncccc4C(N)=O)c(F)c3)nn2cc1C [Example 130, 2-(4-(2-((6,7-dimethyl-[1,2,4]-triazolo[1,5-a]-pyridin-2-yl)-amino)-2-oxoethyl)-2-fluorophenoxy)-nicotinamide] | 23 | – |
| CC(C)(O)COc1ccn2nc(NC(=O)Cc3ccc(Oc4ncccc4C(N)=O)c(F)c3)nc2c1 [Example 110, 2-(2-fluoro-4-(2-((7-(2-hydroxy-2-methylpropoxy)-[1,2,4]triazolo[1,5-a]pyridin-2-yl)amino)-2-oxoethyl)phenoxy)nicotinamide] | 36 | – |
| Cc1ccc2nc(NC(=O)Cc3ccc(Oc4ncccc4C(N)=O)c(F)c3)nn2c1C [Example 131, 2-(4-(2-((5,6-dimethyl-[1,2,4]-triazolo[1,5-a]-pyridin-2-yl)-amino)-2-oxoethyl)-2-fluorophenoxy)-nicotinamide] | 129 | – |
| Cn1nc(C(F)(F)F)cc1-c1ccc2sc(NC(=O)Cc3ccc(Oc4ncccc4C(N)=O)c(F)c3)nc2c1 [Example 006, 2-(2-fluoro-4-(2-((5-(1-methyl-3-(trifluoromethyl)-1H-pyrazol-5-yl)benzo[d]thiazol-2-yl)amino)-2-oxoethyl)phenoxy) nicotinamide] | 18 | – |
| NC(=O)c1cccnc1Oc1ccc(CC(=O)Nc2nc3ccc(C(F)(F)F)cc3n2CC2CC2)cc1F [Example 175, 2-(4-(2-((1-(cyclopropyl-methyl)-6-(trifluoro-methyl)-1H-benzo[d]-imidazol-2-yl)amino)-2-oxoethyl)-2-fluorophenoxy)-nicotinamide] | 44 | – |
| NC(=O)c1cccnc1Oc1ccc(CC(=O)Nc2nc(-c3cccc(F)c3)cs2)cc1 [Example 064, 2-(4-(2-((4-(3-fluorophenyl)thia-zol-2-yl)amino)-2-oxoethyl)phenoxy) nicotinamide] | 423 | – |
| NC(=O)c1cccnc1Oc1ccc(CC(=O)Nc2nc(-c3ccc4c(c3)OCCO4)cs2)cc1 [Example 057, 2-(4-(2-((4-(2,3-dihydrobenzo[b][1, 4]dioxin-6-yl)thiazol-2-yl)amino)-2-oxoethyl)phenoxy) nicotinamide] | 186 | – |
| Cc1sc(NC(=O)Cc2ccc(Oc3ncccc3C(N)=O)c(F)c2)nc1-c1cccc(C#N)n1 [Example 045, 2-(4-(2-((4-(6-cyanopyridin-2-yl)-5-methylthiazol-2-yl)amino)-2-oxoethyl)-2-fluorophenoxy)nicotin-amide] | 21 | – |
| NC(=O)c1cccnc1Oc1ccc(CC(=O)Nc2nc3ccccc3n2Cc2ccccc2)cc1Cl [Example 079, 2-(4-(2-((1-benzyl-1H-benzo[d]imidazol-2-yl)amino)-2-oxoethyl)-2-chlorophenoxy)nico-tinamide] | 181 | – |
| Cc1sc(NC(=O)Cc2ccc(Oc3ncccc3C(N)=O)c(F)c2)nc1C1CC1 [Example 046, 2-(4-(2-((4-cyclopropyl-5-methylthiazol-2-yl)amino)-2-oxoethyl)-2-fluorophenoxy)nicotin-amide] | 22 | – |
| NC(=O)c1cccnc1Oc1ccc(CC(=O)Nc2nc3cc(C(F)(F)F)ccn3n2)cc1F [Example 132, 2-(2-fluoro-4-(2-oxo-2-((7-(trifluoro-methyl)-[1,2,4]-triazolo[1,5-a]-pyridin-2-yl)amino)-ethyl)phenoxy)-nicotinamide] | 129 | – |
| NC(=O)c1cccnc1Oc1ccc(CC(=O)Nc2nc3ccc(F)cn3n2)cc1F [Example 128, 2-(2-fluoro-4-(2-((6-fluoro-[1,2,4]-triazolo[1,5-a]-pyridin-2-yl)amino)-2-oxoethyl)phenoxy)-nicotinamide] | 301 | – |
| COc1ccn2nc(NC(=O)Cc3ccc(Oc4ncccc4C(N)=O)c(F)c3)nc2c1 [Example 008, 2-(2-fluoro-4-(2-((7-methoxy-[1,2,4]triazolo[1,5-a]pyridin-2-yl)amino)-2-oxoethyl)phenoxy)nicotinamide] | 7 | – |
| Cc1nnc(NC(=O)Cc2ccc(Oc3ncccc3C(N)=O)cc2)s1 [Example 055, 2-(4-(2-((5-methyl-1,3,4-thiadiazol-2-yl)amino)-2-oxoethyl)phenoxy) nicotinamide] | 1110 | – |
| COc1ccn2nc(NC(=O)Cc3ccc(Oc4ncccc4C(N)=O)cc3)nc2c1 [Example 124, 2-(4-(2-((7-methoxy-[1,2,4]-triazolo[1,5-a]-pyridin-2-yl)-amino)-2-oxo-ethyl)phenoxy)-nicotinamide] | 68.5 | – |
| COc1ccc2sc(NC(=O)Cc3ccc(Oc4ncccc4C(N)=O)cc3)nc2c1 [Example 002, 2-(4-(2-((5-methoxybenzo[d]thiazol-2-yl)amino)-2-oxoethyl)phenoxy) Nicotinamide] | 35 | – |
| Cc1sc(NC(=O)Cc2ccc(Oc3ncccc3C(N)=O)c(F)c2)nc1-c1ccncc1 [Example 044, 2-(2-fluoro-4-(2-((5-methyl-4-(pyridin-4-yl)thiazol-2-yl)amino)-2-oxoethyl)phenoxy)nico-tinamide] | 24 | – |
| CP(C)(=O)c1cccc2nc(NC(=O)Cc3ccc(Oc4ncccc4C(N)=O)c(F)c3)nn12 [Example 147] | 1390 | – |
| NC(=O)c1cccnc1Oc1ccc(CC(=O)Nc2nc3c(C(F)(F)F)cccn3n2)cc1F [Example 141, 2-(2-fluoro-4-(2-oxo-2-((8-(trifluoromethyl)-[1,2,4]triazolo[1,5-a]pyridin-2-yl)amino)ethyl)phenoxy)nicotinamide] | 34 | – |
| CP(C)(=O)c1ccc2nc(NC(=O)Cc3ccc(Oc4ncccc4C(N)=O)c(F)c3)cn2c1 [Example 149, 2-(4-(2-((6-(dimethyl-phosphoryl)imidazo-[1,2-a]pyridin-2-yl)-amino)-2-oxoethyl)-2-fluorophenoxy)-nicotinamide] | 1230 | – |
| NC(=O)c1cccnc1Oc1ccc(CC(=O)Nc2nc3cc(Br)ccn3n2)cc1F [Example 134, 2-(4-(2-((7-bromo-[1,2,4]triazolo[1,5-a]pyridin-2-yl)amino)-2-oxoethyl)-2-fluorophenoxy)nicotinamide] | 44 | – |
| [2H]C([2H])([2H])n1ccc(-c2ccc3sc(NC(=O)Cc4ccc(Oc5ncccc5C(N)=O)c(F)c4)nc3c2)n1 [Example 034, 2-(2-fluoro-4-(2-((5-(1-(methyl-d3)-1H-pyrazol-3-yl)benzo[d]thiazol-2-yl)amino)-2-oxoethyl)phenoxy)nico-tinamide] | 8 | – |
